Measured values reported in PubChem BioAssay AID248 (DTP/NCI, 2004).
“And” between values parts separate entries of the source, which are not always exact repeats. Equal entries are not always repeated. Inconclusive results and toxic doses are left out.

System: L1210 leukemia ip in BDF1 mice, survival T/C
Assay: NCI In Vivo Anticancer Drug Screen. Data for tumor model L1210 Leukemia (intraperitoneal) in B6D2F1 (BDF1) mice
Details: endpoint: mean survival time, higher = longer survival
Procedure, shortened: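 Antitumor effect is assessed in tumor-bearing animals. Survival in the compound arm is compared with a vehicle-dosed control arm and expressed as their quotient.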

[1] = dose: 100.0 mg/kg/injection, schedule: Q01DX009 (ip), vehicle: saline with Tween-80
[2] = dose: 200.0 mg/kg/injection, schedule: Q01DX009 (ip), vehicle: saline with Tween-80
[3] = dose: 100.0 mg/kg/injection, schedule: Q04DX003 (ip), vehicle: saline with Tween-80
[4] = dose: 200.0 mg/kg/injection, schedule: Q04DX003 (ip), vehicle: saline with Tween-80
[5] = dose: 400.0 mg/kg/injection, schedule: Q04DX003 (ip), vehicle: saline with Tween-80
[6] = dose: 100.0 mg/kg/injection, schedule: Q04DX003 (ip), vehicle: Klucel (hydroxypropylcellulose) (HPC)
[7] = dose: 200.0 mg/kg/injection, schedule: Q04DX003 (ip), vehicle: Klucel (hydroxypropylcellulose) (HPC)
[8] = dose: 400.0 mg/kg/injection, schedule: Q04DX003 (ip), vehicle: Klucel (hydroxypropylcellulose) (HPC)
[9] = dose: 100.0 mg/kg/injection, schedule: Q01DX009 (ip), vehicle: Klucel (hydroxypropylcellulose) (HPC)
[10] = dose: 200.0 mg/kg/injection, schedule: Q01DX009 (ip), vehicle: Klucel (hydroxypropylcellulose) (HPC)
[11] = dose: 400.0 mg/kg/injection, schedule: Q01DX009 (ip), vehicle: Klucel (hydroxypropylcellulose) (HPC)
[12] = dose: 50.0 mg/kg/injection, schedule: Q01DX009 (ip), vehicle: saline with Tween-80

CCCCOC(=O)/C=C/C(=O)OCCCC
T/C [1]: 97 % of control | T/C [2]: 101 % of control | T/C (dose: 400.0 mg/kg/injection, schedule: Q01DX009 (ip), vehicle: saline with Tween-80): 111 % of control

CCCCCCCCCCCCCCCCSc1ccc(Br)cc1
T/C [3]: 92 % of control | T/C [4]: 102 % of control | T/C [5]: 97 % of control

O=C1NC(=O)C2(CCN(CCCSc3ccc(F)cc3)CC2)C(=O)N1
T/C [6]: 98 % of control | T/C [7]: 98 % of control | T/C [8]: 94 % of control

CCCCCCCCCCCCCC1=NCCN1CCO
T/C (dose: 5.0 mg/kg/injection, schedule: Q01DX009 (ip), vehicle: saline): 94 % of control | T/C (dose: 10.0 mg/kg/injection, schedule: Q01DX009 (ip), vehicle: saline): 96 % of control | T/C (dose: 20.0 mg/kg/injection, schedule: Q01DX009 (ip), vehicle: saline): 86 % of control

CCC(C)c1cc([N+](=O)[O-])cc([N+](=O)[O-])c1SC(=O)N(C)C (configuration not stated)
T/C [9]: 94 % of control | T/C [10]: 97 % of control | T/C [11]: 100 % of control

COCNC(=S)N/N=C/c1ccccn1
T/C (dose: 12.5 mg/kg/injection, schedule: Q01DX009 (ip), vehicle: saline with Tween-80): 124 % of control | T/C [12]: 124 % of control

CCCCCCCCCCCCCCCCOc1ccc(C=Nc2ccc(C)cc2)cc1
T/C [6]: 103 % of control | T/C [7]: 97 % of control | T/C [8]: 104 % of control

CCOCc1nc2nc(Cl)c(Cl)nc2[nH]1
T/C (dose: 25.0 mg/kg/injection, schedule: Q04DX003 (ip), vehicle: saline with Tween-80): 97 % of control | T/C [12]: 106 % of control | T/C (dose: 50.0 mg/kg/injection, schedule: Q04DX003 (ip), vehicle: saline with Tween-80): 97 % of control | T/C [1]: 116 % of control | T/C [3]: 97 % of control | T/C [2]: 87 % of control | T/C [4]: 95 % of control and 97 % of control

CC(=O)OCC1CCC(NC(=O)N(CCCl)N=O)CC1 (configuration not stated)
T/C (dose: 3.0 mg/kg/injection, schedule: Q01DX001 (ip), vehicle: Klucel (hydroxypropylcellulose) (HPC)): 104 % of control | T/C (dose: 5.0 mg/kg/injection, schedule: Q01DX001 (ip), vehicle: Klucel (hydroxypropylcellulose) (HPC)): 114 % of control | T/C (dose: 8.0 mg/kg/injection, schedule: Q01DX001 (ip), vehicle: Klucel (hydroxypropylcellulose) (HPC)): 167 % of control | T/C (dose: 12.0 mg/kg/injection, schedule: Q01DX001 (ip), vehicle: Klucel (hydroxypropylcellulose) (HPC)): 221 % of control | T/C (dose: 18.0 mg/kg/injection, schedule: Q01DX001 (ip), vehicle: Klucel (hydroxypropylcellulose) (HPC)): 270 % of control and 316 % of control | T/C (dose: 26.0 mg/kg/injection, schedule: Q01DX001 (ip), vehicle: Klucel (hydroxypropylcellulose) (HPC)): 316 % of control | T/C (dose: 40.0 mg/kg/injection, schedule: Q01DX001 (ip), vehicle: Klucel (hydroxypropylcellulose) (HPC)): 208 % of control

O=C(O)CC(Sc1ccccc1)c1ccccc1 (configuration not stated)
T/C (dose: 50.0 mg/kg/injection, schedule: Q01DX009 (ip), vehicle: Klucel (hydroxypropylcellulose) (HPC)): 98 % of control | T/C [9]: 101 % of control | T/C (dose: 177.0 mg/kg/injection, schedule: Q04DX002 (ip), vehicle: saline): 94 % of control | T/C [10]: 96 % of control | T/C (dose: 266.0 mg/kg/injection, schedule: Q04DX002 (ip), vehicle: saline): 94 % of control | T/C (dose: 400.0 mg/kg/injection, schedule: Q04DX002 (ip), vehicle: saline): 105 % of control | T/C (dose: 600.0 mg/kg/injection, schedule: Q04DX002 (ip), vehicle: saline): 103 % of control

CCC(O)C(CCN(C)C)(C(=O)N(C)C)c1ccccc1 (configuration not stated)
T/C (dose: 75.0 mg/kg/injection, schedule: Q01DX001 (ip), vehicle: saline): 98 % of control | T/C (dose: 150.0 mg/kg/injection, schedule: Q01DX001 (ip), vehicle: saline): 100 % of control

CCC1COC(=S)N1 (configuration not stated)
T/C (dose: 6.25 mg/kg/injection, schedule: Q01DX001 (ip), vehicle: Klucel (hydroxypropylcellulose) (HPC)): 93 % of control | T/C (dose: 6.25 mg/kg/injection, schedule: Q01DX009 (ip), vehicle: saline): 91 % of control | T/C (dose: 12.5 mg/kg/injection, schedule: Q01DX001 (ip), vehicle: Klucel (hydroxypropylcellulose) (HPC)): 108 % of control | T/C (dose: 12.5 mg/kg/injection, schedule: Q01DX009 (ip), vehicle: saline): 105 % of control | T/C (dose: 25.0 mg/kg/injection, schedule: Q01DX001 (ip), vehicle: Klucel (hydroxypropylcellulose) (HPC)): 100 % of control | T/C (dose: 25.0 mg/kg/injection, schedule: Q04DX002 (ip), vehicle: saline with Tween-80): 103 % of control

CN(c1ccccc1)S(=O)(=O)c1cccc([N+](=O)[O-])c1
T/C [6]: 103 % of control | T/C [7]: 94 % of control | T/C [8]: 101 % of control

COc1ccccc1N=Nc1ccc(O)c(C(=O)O)c1
T/C [6]: 102 % of control | T/C [7]: 103 % of control

C/C=C(/C)C(=O)OCCCCCCCCC
T/C (dose: 100.0 mg/kg/injection, schedule: Q04DX002 (ip), vehicle: Klucel (hydroxypropylcellulose) (HPC)): 102 % of control | T/C (dose: 200.0 mg/kg/injection, schedule: Q04DX002 (ip), vehicle: Klucel (hydroxypropylcellulose) (HPC)): 102 % of control | T/C (dose: 400.0 mg/kg/injection, schedule: Q04DX002 (ip), vehicle: Klucel (hydroxypropylcellulose) (HPC)): 94 % of control

COc1cc(C=Nc2cccc(C(F)(F)F)c2)ccc1O
T/C [9]: 95 % of control | T/C [6]: 102 % of control | T/C [10]: 86 % of control | T/C [7]: 98 % of control | T/C [11]: 101 % of control | T/C [8]: 104 % of control

O=[N+]([O-])c1ccc(CBr)c(I)c1
T/C (dose: 75.0 mg/kg/injection, schedule: Q01DX001 (ip), vehicle: other): 98 % of control | T/C (dose: 150.0 mg/kg/injection, schedule: Q01DX001 (ip), vehicle: other): 102 % of control | T/C (dose: 300.0 mg/kg/injection, schedule: Q01DX001 (ip), vehicle: other): 94 % of control

C/C=C/C(=O)Nc1cccc(OC(=O)NCC)c1
T/C [3]: 95 % of control | T/C [4]: 93 % of control | T/C [5]: 98 % of control

O=S(=O)(F)c1ccc(Cl)cc1
T/C [3]: 101 % of control | T/C [4]: 89 % of control

CNC1(c2ccccc2)CC2CCC(C2)C1O (configuration not stated)
T/C (dose: 100.0 mg/kg/injection, schedule: Q01DX001 (ip), vehicle: saline): 98 % of control | T/C [6]: 101 % of control | T/C (dose: 200.0 mg/kg/injection, schedule: Q01DX001 (ip), vehicle: saline): 106 % of control | T/C [7]: 104 % of control | T/C (dose: 400.0 mg/kg/injection, schedule: Q01DX001 (ip), vehicle: saline): 101 % of control | T/C [8]: 108 % of control

CCCCCNC(C)=O
T/C (dose: 200.0 mg/kg/injection, schedule: Q01DX009 (ip), vehicle: saline): 108 % of control

CC(=O)Oc1ccc(-c2ccc(Cl)cc2)cc1
T/C (dose: 100.0 mg/kg/injection, schedule: Q01DX001 (ip), vehicle: carboxymethylcellulose (CMC)): 103 % of control | T/C (dose: 200.0 mg/kg/injection, schedule: Q01DX001 (ip), vehicle: carboxymethylcellulose (CMC)): 109 % of control | T/C (dose: 400.0 mg/kg/injection, schedule: Q01DX001 (ip), vehicle: carboxymethylcellulose (CMC)): 97 % of control

FC(F)(F)c1ccc(C=C2c3ccccc3-c3ccccc32)cc1
T/C (dose: 12.5 mg/kg/injection, schedule: Q04DX002 (ip), vehicle: Klucel (hydroxypropylcellulose) (HPC)): 92 % of control | T/C (dose: 25.0 mg/kg/injection, schedule: Q04DX002 (ip), vehicle: Klucel (hydroxypropylcellulose) (HPC)): 92 % of control | T/C (dose: 50.0 mg/kg/injection, schedule: Q04DX002 (ip), vehicle: Klucel (hydroxypropylcellulose) (HPC)): 92 % of control

CCOC(=O)C(CC(OCC)OCC)C1=NC(C)(C)CC(C)O1 (configuration not stated)
T/C (dose: 100.0 mg/kg/injection, schedule: Q01DX001 (ip), vehicle: Klucel (hydroxypropylcellulose) (HPC)): 105 % of control | T/C (dose: 200.0 mg/kg/injection, schedule: Q01DX001 (ip), vehicle: Klucel (hydroxypropylcellulose) (HPC)): 89 % of control | T/C (dose: 400.0 mg/kg/injection, schedule: Q01DX001 (ip), vehicle: Klucel (hydroxypropylcellulose) (HPC)): 100 % of control
